Assay results reported in patent publication US10253002B2, “Compounds and methods of treating infections” (Neoculi Pty Ltd., priority 2013, dated 2019).
Read-outs that look alike come from different tables or passages of the source.

Experiments:
[1] = tested on: S. aureus clinical isolates (MRSA and MSSA); assay: Broth microdilution MIC, Example 4; type: cell-based, Staphylococcus aureus; conditions: for MIC / MIC50 / MIC90: Staphylococcus aureus; for MIC: 24 h
Procedure: Microtiter plates containing two-fold dilutions of each antimicrobial agent were inoculated with ˜10^5 CFU/ml of each isolate in a 100 μL final volume. Plates were incubated for 24 h at 37° C. Turbidity (absorbance at OD600) was measured using a Bio-Rad Benchmark Plus microplate spectrophotometer in Microplate Manager® version 5.2.1 (Bio-Rad). Minimum inhibitory concentration (MIC) endpoints were defined as the lowest antimicrobial concentration assessed by the spectrophotometer that inhibited bacterial growth. ATCC 49775 was included in the isolate collection as a control organism using breakpoints defined by the CLSI. The MIC50, MIC90 (concentrations that inhibited growth of the lower 50% and 90% of total organisms, respectively), and MIC range (minimum and maximum) were calculated to profile the antimicrobial susceptibility of the isolate collection.

S. pneumoniae isolates = assay: Micro-broth dilution MIC, Example 5; type: cell-based, Streptococcus pneumoniae
Procedure: For all in vitro assays, fresh pneumococcal isolates were grown overnight (O/N) on horse blood agar (HBA) plates (39 g/L Columbia blood agar base [Oxoid] 5% [v/v] defribinated horse blood [Oxoid] at 37° C. with 5% supplemented CO2). Mueller-Hinton blood agar with 5% defibrinated sheep blood (MHSBA Roseworthy Media and Blood Service) was used for disk diffusion analysis as directed by Clinical Laboratory Standards Institute (CLSI) standards. Pneumococci were routinely grown in broth consisting of 4% lysed horse blood (LHB) with Cation Adjusted Mueller Hinton Broth (CAHMB, [Difco]) at 37° C. with 5% supplemented CO2. […] Isolates were stored in HSB at −80° C.
[Micro-broth dilutions and 96 well trays are prepared by the following method: 90 μL of 4% LHB:CAMHB is aliquotted into all wells using a multichannel pipette. 90 μL of working antimicrobial stocks were no serial diluted down the tray by a 1:2 dilution. Negative broth controls and dilution control were taken into account when planning the set up of a 96 well tray.] 10 μL of bacterial suspension was then added to the appropriate wells in the 96 well tray. Appropriate positive (no antimicrobial), negative (no antimicrobial or bacteria) and negative dilution (a serial dilution control of antimicrobial and broth) controls were included in each assay. […] The MBC was determined by a 99.95% inhibition of S. pneumoniae, taking into account the dilution factor. MICs and MBCs were determined in quadruplicate and the mode was taken as the representative value. The MIC50, MIC90 and MIC range and MBC50, MBC90 and MBC range were determined according to CLSI standards. The MIC50 and MIC90, or MBC50 and MBC90, are defined by the lowest concentrations which, when all the MICs and MBCs of the isolates are arranged from lowest to highest, inhibited the 50th and 90th percentile of the total amount of isolates, respectively.

Escherichia coli = assay: Broth microdilution MIC, Example 7 (NCL812 and analogues); type: cell-based
Pseudomonas aeruginosa = assay: as above; type: cell-based; conditions: for MIC: Pseudomonas aeruginosa
[2] = Methicillin-susceptible staphylococci (n = 10)
[3] = Total bacterial isolates (n = 30)
[4] = Escherichia coli, read-out: MIC (μg/ml) at 24 hours, E. coli, 24 hours, 1st and 2nd replicate rows
[5] = 24 h, read-out: MIC (μg/ml) at 24 hours, P. aeruginosa, 24 hours, 1st and 2nd replicate rows
[6] = P. aeruginosa, 1st, read-out: MIC
[7] = P. aeruginosa, 2nd, read-out: MIC
[8] = 24 hours, 1st and 2nd replicate rows

CC1(C)S[C@@H]2[C@H](NC(=O)[C@H](N)c3ccccc3)C(=O)N2[C@H]1C(=O)O [Ampicillin]
0.023 µg/mL: MIC (S. pneumoniae isolates; Streptococcus pneumoniae, D39, 4% LHB:CAMHB, read-out: Relative MIC with media type for D39) | MIC (S. pneumoniae isolates; Streptococcus pneumoniae, pneumococcal isolate D39, read-out: MIC) | MIC (S. pneumoniae isolates; Streptococcus pneumoniae, pneumococcal isolate EF3030, read-out: MIC) | MIC (S. pneumoniae isolates; Streptococcus pneumoniae, pneumococcal isolate L82016, read-out: MIC) | MIC (S. pneumoniae isolates; Streptococcus pneumoniae, pneumococcal isolate P9, read-out: MIC) | MIC (S. pneumoniae isolates; Streptococcus pneumoniae, pneumococcal isolate P21, read-out: MIC) | MIC (S. pneumoniae isolates; Streptococcus pneumoniae, pneumococcal isolate TIGR4, read-out: MIC) | MIC (S. pneumoniae isolates; Streptococcus pneumoniae, pneumococcal isolate WCH16, read-out: MIC) | MIC (S. pneumoniae isolates; Streptococcus pneumoniae, pneumococcal isolate WCH43, read-out: MIC) | MIC (S. pneumoniae isolates; Streptococcus pneumoniae, pneumococcal isolate WCH46, read-out: MIC) | MIC (S. pneumoniae isolates; Streptococcus pneumoniae, pneumococcal isolate WCH57, read-out: MIC) | MIC (S. pneumoniae isolates; Streptococcus pneumoniae, pneumococcal isolate WCH77, read-out: MIC) | MIC (S. pneumoniae isolates; Streptococcus pneumoniae, pneumococcal isolate WCH86, read-out: MIC) | MIC (S. pneumoniae isolates; Streptococcus pneumoniae, pneumococcal isolate WCH89, read-out: MIC) | MIC (S. pneumoniae isolates; Streptococcus pneumoniae, pneumococcal isolate WCH137, read-out: MIC) | MIC (S. pneumoniae isolates; Streptococcus pneumoniae, pneumococcal isolate WCH158, read-out: MIC) | MIC (S. pneumoniae isolates; Streptococcus pneumoniae, pneumococcal isolate WCH211, read-out: MIC) | MIC (S. pneumoniae isolates; Streptococcus pneumoniae, pneumococcal isolate WU2, read-out: MIC) | MIC50 (S. pneumoniae isolates; Streptococcus pneumoniae, all S. pneumoniae isolates, read-out: MIC50) | MIC90 (S. pneumoniae isolates; Streptococcus pneumoniae, all S. pneumoniae isolates, read-out: MIC90)
0.0225 µg/mL: MIC (S. pneumoniae isolates; Streptococcus pneumoniae, isolate D39, Table 22, CAMHB diluent for NCL062, read-out: MIC) | MIC (S. pneumoniae isolates; Streptococcus pneumoniae, isolate P21, Table 22, CAMHB diluent for NCL062, read-out: MIC) | MIC (S. pneumoniae isolates; Streptococcus pneumoniae, isolate WCH158, Table 22, CAMHB diluent for NCL062, read-out: MIC) | MIC (S. pneumoniae isolates; Streptococcus pneumoniae, isolate WU-2, Table 22, CAMHB diluent for NCL062, read-out: MIC)
8 to 128 µg/mL: MICrange ([1]; CA-MRSA (n = 10))
4 µg/mL: MIC (Escherichia coli; E. coli, 2nd) | MIC (Escherichia coli; [4]) | MIC (Escherichia coli; Escherichia coli, E. coli, 1st, read-out: MIC)
> 128 µg/mL: MIC ([1]; read-out: Observed MIC at 24-h, MRSA580, present study) | MIC ([1]; read-out: Original MIC at 24-h, MRSA580, preliminary studies) | MIC90 ([1]; HA-MRSA (n = 10)) | MIC (Pseudomonas aeruginosa; [5]) | MIC (Pseudomonas aeruginosa; [6]) | MIC (Pseudomonas aeruginosa; [7])
0.09 µg/mL: MIC (S. pneumoniae isolates; Streptococcus pneumoniae, D39, 10% horse serum-supplemented broth, read-out: Relative MIC with media type for D39) | MIC (S. pneumoniae isolates; Streptococcus pneumoniae, isolate WCH57, Table 22, CAMHB diluent for NCL062, read-out: MIC) | MIC (S. pneumoniae isolates; Streptococcus pneumoniae, pneumococcal isolate WCH92, read-out: MIC)
128 µg/mL: MIC90 ([1]; CA-MRSA (n = 10)) | MIC90 [1, 3]
8 µg/mL: MIC90 [1, 2]
16 µg/mL: MIC ([1]; read-out: Observed MIC at 24-h, MRSA698, present study) | MIC ([1]; read-out: Original MIC at 24-h, MRSA698, preliminary studies) | MIC50 [1, 3]
0.25 µg/mL: MIC ([1]; ATCC 49775 / MRSA / MSSA, read-out: Observed MIC at 24-h, ATCC 49775, present study) | MIC50 [1, 2]
0.25-16^ μg/ml: MICrange [1, 2]
64 µg/mL: MIC50 ([1]; CA-MRSA (n = 10)) | MIC50 ([1]; HA-MRSA (n = 10))
0.045 µg/mL: MIC (S. pneumoniae isolates; Streptococcus pneumoniae, isolate A66.1, Table 22, CAMHB diluent for NCL062, read-out: MIC) | MIC (S. pneumoniae isolates; Streptococcus pneumoniae, pneumococcal isolate A66.1, read-out: MIC) | MIC (S. pneumoniae isolates; Streptococcus pneumoniae, pneumococcal isolate WCH184, read-out: MIC)
0.011 to 0.09 µg/mL: MIC range (S. pneumoniae isolates; all S. pneumoniae isolates)

N=C(N/N=C/c1ccc(Cl)cc1)N/N=C/c1ccc(Cl)cc1 [NCL812, 1,3-bis[(E)-(4-chlorophenyl)methyleneamino]guanidine]
>128 µg/mL: MIC (μg/ml) at 24 hours, E. coli (Escherichia coli; [8]) | MIC (Escherichia coli; E. coli, 1st) | MIC (Escherichia coli; E. coli, 2nd) | MIC (μg/ml) at 24 hours, P. aeruginosa (Pseudomonas aeruginosa; [8])
> 128 µg/mL: MIC (Escherichia coli; [4]) | MIC (Escherichia coli; Escherichia coli, read-out: MIC) | MIC (Pseudomonas aeruginosa; [5]) | MIC (Pseudomonas aeruginosa; [6]) | MIC (Pseudomonas aeruginosa; [7]) | MIC (Pseudomonas aeruginosa; read-out: MIC)
32 µg/mL: MIC (S. pneumoniae isolates; Streptococcus pneumoniae, read-out: Relative MIC with media type for D39, D39, 10% horse serum-supplemented broth)
2 to 4 µg/mL: MICrange ([1]; CA-MRSA (n = 10))
2 to 8 µg/mL: MICrange [1, 2] | MICrange [1, 3]
